Data taken from patent publication US8791130B2, “Aminopyrimidine derivatives as LRRK2 modulators” (Genentech, Inc., priority 2011, dated 2014).

Target: LRRK2 (Homo sapiens (Human), UniProt Q5S007, G2019S)
Assay: In Vitro LRRK2 LabChip Assay (LRRK2 Ki)
Format: biochemical
Method: In Vitro LRRK2 LabChip Assay This assay was used to determine a compound's potency in inhibiting activity of LRRK2 by determining, Kiapp, IC50, or percent inhibition values. In a polypropylene plate, LRRK2, fluorescently-labeled peptide substrate, ATP and test compound were incubated together. Using a LabChip 3000 (Caliper Life Sciences), after the reaction the substrate was separated by capillary electrophoresis into two populations: phosphorylated and unphosphorylated. The relative amounts of each were quantitated by fluorescence intensity. LRRK2 Ki was determined according to the equation: […]))). Ki values in Table 4 and elsewhere herein are shown in μM. […] Substrate: 5[…] Non-binding plate: 384 well clear V-bottom polypropylene plates (Greiner cat #781280). ATP: 10 mM ATP (Cell Signaling cat #9804). Triton X-100: Triton X-100. Brij-35: Brij-35 (Pierce cat #20150). […] DMSO: DMSO (Sigma cat #34869-100 ML). […] Compound Plate Preparation: For serial dilutions, 34.6 μl DMSO was added to columns 3-24. For the assay controls, 37.5 μl DMSO was added to columns 1 and 2 of rows A and […]-028831 (Staurosporine) was added to columns 1 and 2, row B. […] A Precision instrument was used to perform 1:3.16 serial dilutions (“PLK_BM_serial_halflog”). ATP Preparation: ATP was diluted to 282.1 μM in Complete Kinase Buffer (final concentration was 130 μM). […] Assay Procedure: To a 50 μl polypropylene plate, 5 μl/well buffer/substrate was added by hand to Blank wells. A Biomek FX was used to start the kinase reaction (“PLK SAR 23 ATP”). […] 5 μl/well kinase/substrate in Assay Plate; The plate was incubated for 2 hours in the dark. Biomek FX was used to stop the kinase reaction (“PLK Stop”), and 10 μl/well Stop solution was added to the Assay Plate.

Chain of LRRK2 (Q5S007 970-2527 G2019S): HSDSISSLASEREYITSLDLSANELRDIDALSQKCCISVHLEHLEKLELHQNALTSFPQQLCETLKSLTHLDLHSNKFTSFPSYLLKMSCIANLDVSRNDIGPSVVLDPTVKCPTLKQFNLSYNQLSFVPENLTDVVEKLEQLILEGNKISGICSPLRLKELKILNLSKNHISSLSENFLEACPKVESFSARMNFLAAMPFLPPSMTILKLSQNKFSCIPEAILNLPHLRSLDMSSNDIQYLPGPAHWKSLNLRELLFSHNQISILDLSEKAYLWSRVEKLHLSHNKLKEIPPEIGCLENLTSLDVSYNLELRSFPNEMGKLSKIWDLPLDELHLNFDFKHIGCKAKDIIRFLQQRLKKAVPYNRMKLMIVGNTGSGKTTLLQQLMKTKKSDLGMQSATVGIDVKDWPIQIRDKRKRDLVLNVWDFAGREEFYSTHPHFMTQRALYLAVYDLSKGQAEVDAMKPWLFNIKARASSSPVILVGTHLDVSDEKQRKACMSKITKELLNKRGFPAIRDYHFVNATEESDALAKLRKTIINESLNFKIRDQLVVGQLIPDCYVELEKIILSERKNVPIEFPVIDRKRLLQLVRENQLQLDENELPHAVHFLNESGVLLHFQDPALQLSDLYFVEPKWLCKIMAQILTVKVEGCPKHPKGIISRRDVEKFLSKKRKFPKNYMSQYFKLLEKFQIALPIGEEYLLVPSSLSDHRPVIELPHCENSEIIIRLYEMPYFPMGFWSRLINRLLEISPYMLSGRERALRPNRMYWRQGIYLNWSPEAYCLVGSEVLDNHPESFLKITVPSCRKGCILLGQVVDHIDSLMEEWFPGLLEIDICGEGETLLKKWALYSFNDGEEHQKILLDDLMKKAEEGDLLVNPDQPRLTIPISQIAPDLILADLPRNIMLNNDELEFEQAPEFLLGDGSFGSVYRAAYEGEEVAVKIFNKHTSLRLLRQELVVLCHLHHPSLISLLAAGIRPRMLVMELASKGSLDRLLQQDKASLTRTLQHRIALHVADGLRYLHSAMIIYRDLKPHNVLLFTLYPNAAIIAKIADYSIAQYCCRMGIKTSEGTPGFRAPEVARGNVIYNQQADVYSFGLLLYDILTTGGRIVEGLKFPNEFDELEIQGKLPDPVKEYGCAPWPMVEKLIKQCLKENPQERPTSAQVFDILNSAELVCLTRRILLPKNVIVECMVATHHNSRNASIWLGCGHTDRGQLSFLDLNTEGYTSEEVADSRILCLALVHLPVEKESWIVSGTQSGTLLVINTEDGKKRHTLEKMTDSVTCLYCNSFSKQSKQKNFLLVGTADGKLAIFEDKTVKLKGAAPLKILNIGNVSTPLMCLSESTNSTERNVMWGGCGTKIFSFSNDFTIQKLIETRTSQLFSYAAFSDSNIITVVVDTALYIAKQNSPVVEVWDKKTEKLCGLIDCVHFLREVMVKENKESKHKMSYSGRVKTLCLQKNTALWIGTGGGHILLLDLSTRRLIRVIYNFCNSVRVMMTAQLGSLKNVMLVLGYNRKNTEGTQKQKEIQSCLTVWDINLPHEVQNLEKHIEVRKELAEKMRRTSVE

Row | SMILES | Ki [nM]
1 | CNc1nc(Nc2cc(F)c(-n3nnnc3COC)cc2OC)ncc1C(F)(F)F [Compound 49, N2-(5-fluoro-2-methoxy-4-(5-(methoxymethyl)-1H-tetrazol-1-yl)phenyl)-N4-methyl-5-(trifluoromethyl) pyrimidine-2,4-diamine] | 4
2 | CNc1nc(Nc2cc(OC)c(-c3nnc(C)o3)cc2Cl)ncc1C(F)(F)F [Compound 7, N2-(2-chloro-5-methoxy-4-(5-methyl-1,3,4-oxadiazol-2-yl)phenyl)-N4-methyl-5-(trifluoromethyl) pyrimidine-2,4-diamine] | 8
3 | CNc1nc(Nc2cc(OC)c(-c3nc(C)no3)cc2Cl)ncc1C(F)(F)F [Compound 31, N^2-(2-chloro-5-methoxy-4-(3-methyl-1,2,4-oxadiazol-5-yl)phenyl)-N^4-methyl-5-(trifluoromethyl) pyrimidine-2,4-diamine] | 41
4 | CNc1nc(Nc2ccc(-c3nc(C)no3)cc2Cl)ncc1Cl [Compound 34, 5-chloro-N^2-(2-chloro-4-(3-methyl-1,2,4-oxadiazol-5-yl)phenyl)-N^4-methylpyrimidine-2,4-diamine] | 80
5 | CNc1nc(Nc2ccc(-c3cnoc3)cc2OC)ncc1Cl [Compound 14, 5-chloro-N^2-(4-(isoxazol-4-yl)-2-methoxyphenyl)-N^4-methylpyrimidine-2,4-diamine] | 15
6 | CNc1nc(Nc2cc(F)c(-n3nc(C)cc3COC)cc2OC)ncc1C(F)(F)F [Compound 47, N2-(5-fluoro-2-methoxy-4-(5-(methoxymethyl)-3-methyl-1H-pyrazol-1-yl)phenyl)-N4-methyl-5-(trifluoromethyl) pyrimidine-2,4-diamine] | 5
7 | CNc1nc(Nc2ccc(-c3nnnn3C)cc2OC)ncc1Cl [Compound 10, 5-chloro-N^2-(2-methoxy-4-(1-methyl-1H-tetrazol-5-yl)phenyl)-N^4-methylpyrimidine-2,4-diamine] | 7
8 | CNc1nc(Nc2cc(OC)c(-c3c(C)nn(C)c3C)cc2Cl)ncc1C(F)(F)F [Compound 24, N^2-(2-chloro-5-methoxy-4-(1,3,5-trimethyl-1H-pyrazol-4-yl)phenyl)-N^4-methyl-5-(trifluoromethyl) pyrimidine-2,4-diamine] | 3
9 | CNc1nc(Nc2cc(F)c(-c3nnnn3C)cc2OC)ncc1C(F)(F)F [Compound 22, N^2-(5-fluoro-2-methoxy-4-(1-methyl-1H-tetrazol-5-yl)phenyl)-N^4-methyl-5-(trifluoromethyl) pyrimidine-2,4-diamine] | 10
10 | CNc1nc(Nc2ccc(-c3nnn(C)n3)cc2Cl)ncc1C(F)(F)F [Compound 3, N2-(2-chloro-4-(2-methyl-2H-tetrazol-5-yl)phenyl)-N4-methyl-5-(trifluoromethyl) pyrimidine-2,4-diamine] | 18
11 | CNc1nc(Nc2cc(F)c(-c3nc(C)no3)cc2OC)ncc1C(F)(F)F [Compound 6, N2-(5-fluoro-2-methoxy-4-(3-methyl-1,2,4-oxadiazol-5-yl)phenyl)-N4-methyl-5-(trifluoromethyl) pyrimidine-2,4-diamine] | 32
12 | CNc1nc(Nc2cc(F)c(-c3cnnn3C)cc2OC)ncc1C(F)(F)F [Compound 43, N2-(5-fluoro-2-methoxy-4-(1-methyl-1H-1,2,3-triazol-5-yl)phenyl)-N4-methyl-5-(trifluoromethyl) pyrimidine-2,4-diamine] | 2
13 | CNc1nc(Nc2ccc(-c3c(C)noc3C)cc2OC)ncc1C(F)(F)F [Compound 26, N^2-(4-(3,5-dimethylisoxazol-4-yl)-2-methoxyphenyl)-N^4-methyl-5-(trifluoromethyl) pyrimidine-2,4-diamine] | 1
14 | CNc1nc(Nc2cc(OC)c(-c3cncn3C)cc2Cl)ncc1C(F)(F)F [Compound 21, N^2-(2-chloro-5-methoxy-4-(1-methyl-1H-imidazol-5-yl)phenyl)-N^4-methyl-5-(trifluoromethyl) pyrimidine-2,4-diamine] | 3
15 | CNc1nc(Nc2cc(C)c(-n3nnnc3COC)cc2OC)ncc1C(F)(F)F [Compound 46, N2-(2-methoxy-4-(5-(methoxymethyl)-1H-tetrazol-1-yl)-5-methylphenyl)-N4-methyl-5-(trifluuromethyl) pyrimidine-2,4-diamine] | 1
16 | CNc1nc(Nc2cc(C)c(-n3nnnc3C)cc2OC)ncc1C(F)(F)F [Compound 45, N2-(2-methoxy-5-methyl-4-(5-methyl-1H-tetrazol-1-yl)phenyl)-N4-methyl-5-(trifluoromethyl) pyrimidine-2,4-diamine] | 1
17 | CNc1nc(Nc2ccc(-c3cnn(C)c3)cc2OC)ncc1Cl [Compound 35, 5-chloro-N^2-(2-methoxy-4-(1-methyl-1H-pyrazol-4-yl)phenyl)-N^4-methylpyrimidine-2,4-diamine] | 2
18 | CNc1nc(Nc2ccc(-c3cnn(C)c3)cc2OC)ncc1C(F)(F)F [Compound 5, N2-(2-methoxy-4-(1-methyl-1H-pyrazol-4-yl)phenyl)-N4-methyl-5-(trifluoromethyl) pyrimidine-2,4-diamine] | 4
19 | CNc1nc(Nc2cc(OC)c(-c3cnnn3C)cc2Cl)ncc1C(F)(F)F [Compound 11, N^2-(2-chloro-5-methoxy-4-(1-methyl-1H-1,2,3-triazol-5-yl)phenyl)-N^4-methyl-5-(trifluoromethyl) pyrimidine-2,4-diamine] | 4
20 | CNc1nc(Nc2ccc(-c3cn(C)nc3C)cc2OC)ncc1C(F)(F)F [Compound 38, N2-(4-(1,3-dimethyl-1H-pyrazol-4-yl)-2-methoxyphenyl)-N4-methyl-5-(trifluoromethyl) pyrimidine-2,4-diamine] | 2
21 | CNc1nc(Nc2ccc(-c3ccnn3C)cc2OC)ncc1C(F)(F)F [Compound 25, N^2-(2-methoxy-4-(1-methyl-1H-pyrazol-5-yl)phenyl)-N^4-methyl-5-(trifluoromethyl) pyrimidine-2,4-diamine] | 1
22 | CNc1nc(Nc2ccc(-c3nnc(C)o3)cc2Cl)ncc1Cl [Compound 33, 5-chloro-N^2-(2-chloro-4-(5-methyl-1,3,4-oxadiazol-2-yl)phenyl)-N^4-methylpyrimidine-2,4-diamine] | 30
23 | CNc1nc(Nc2cc(F)c(-c3cnn(C4COC4)c3)cc2OC)ncc1C(F)(F)F [Compound 44, N2-(5-fluoro-2-methoxy-4-(1-(oxetan-3-yl)-1H-pyrazol-4-yl)phenyl)-N4-methyl-5-(trifluoromethyl) pyrimidine-2,4-diamine] | 10
24 | CNc1nc(Nc2cc(F)c(-c3cnn(C)c3C(=O)N(C)C)cc2OC)ncc1C(F)(F)F [Compound 41, 4-(2-fluoro-5-methoxy-4-(4-(methylamino)-5-(trifluoromethyl)pyrimidin-2-ylamino)phenyl)-N,N,1-trimethyl-1H-pyrazole-5-carboxamide] | 1
25 | CNc1nc(Nc2ccc(-c3nnnn3C)cc2Cl)ncc1C(F)(F)F [Compound 2, N2-(2-chloro-4-(1-methyl-1H-tetrazol-5-yl)phenyl)-N4-methyl-5-(trifluoromethyl) pyrimidine-2,4-diamine] | 7
26 | CNc1nc(Nc2cc(F)c(-n3nnnc3C)cc2OC)ncc1C(F)(F)F [Compound 42, N2-(5-fluoro-2-methoxy-4-(5-methyl-1H-tetrazol-1-yl)phenyl)-N4-methyl-5-(trifluoromethyl) pyrimidine-2,4-diamine] | 3
